Source: ChEMBL document CHEMBL4219241, “Design, synthesis, and structure-activity relationships of novel imidazo[4,5-c]pyridine derivatives as potent non-nucleoside inhibitors of hepatitis C virus NS5B” (Bioorg Med Chem, 2018)

Assays:
[1] = target: T1, RNA-directed RNA polymerase (Hepacivirus hominis, UniProt O39930); assay: Inhibition of Hepatitis C virus genotype 1b NS5B RNA-dependent-RNA polymerase assessed as reduction in viral replication after 72 hrs by indirect immunofluorescence assay; set-up: species or system Hepatitis C virus subtype 1b
T1 sequence (O39930 whole entry): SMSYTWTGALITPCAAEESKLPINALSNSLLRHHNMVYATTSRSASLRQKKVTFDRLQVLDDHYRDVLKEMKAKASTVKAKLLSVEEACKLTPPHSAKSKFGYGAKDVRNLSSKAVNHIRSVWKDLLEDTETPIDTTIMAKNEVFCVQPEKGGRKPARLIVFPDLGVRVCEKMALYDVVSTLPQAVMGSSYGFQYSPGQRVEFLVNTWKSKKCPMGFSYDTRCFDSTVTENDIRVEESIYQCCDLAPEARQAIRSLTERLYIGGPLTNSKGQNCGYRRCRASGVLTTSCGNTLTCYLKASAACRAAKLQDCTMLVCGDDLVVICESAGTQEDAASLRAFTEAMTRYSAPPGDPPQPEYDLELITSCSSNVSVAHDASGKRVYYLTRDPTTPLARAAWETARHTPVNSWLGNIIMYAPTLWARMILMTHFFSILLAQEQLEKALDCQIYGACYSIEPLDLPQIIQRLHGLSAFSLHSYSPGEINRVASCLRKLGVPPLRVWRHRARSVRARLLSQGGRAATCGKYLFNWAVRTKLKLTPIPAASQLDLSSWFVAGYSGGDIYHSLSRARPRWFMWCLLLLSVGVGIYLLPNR

[2] = target: RNA-directed RNA polymerase (Hepacivirus hominis) (UniProt O39930); assay: Potency index, ratio of sofosbuvir EC50 to test compound EC50 for inhibition of Hepatitis C virus genotype 1b NS5B RNA-dependent-RNA polymerase assessed as reduction in viral replication; conditions: Hepatitis C virus subtype 1b
RNA-directed RNA polymerase (Hepacivirus hominis), sequence (O39930 1-591): as the sequence (O39930 whole entry) above

[3] = target: T1, RNA-directed RNA polymerase; assay: Inhibition of Hepatitis C virus genotype 1b NS5B RNA-dependent-RNA polymerase; set-up: species or system Hepatitis C virus subtype 1b
[4] = Cmax in Sprague-Dawley rat at 35 mg/kg, po administered via gavage by UPLC-MS analysis; format: ADME, organism-based; set-up: dose 35 mg/kg, route oral; conditions: in vivo
[5] = Terminal half life in Sprague-Dawley rat at 35 mg/kg, po administered via gavage by UPLC-MS analysis; format: ADME, organism-based; conditions: in vivo, read-out: beta t1/2 (converted)
[6] = MRT (0 to infinity) in Sprague-Dawley rat at 35 mg/kg, po administered via gavage by UPLC-MS analysis; format: ADME, organism-based; conditions: in vivo
[7] = Apparent volume of distribution during terminal phase in Sprague-Dawley rat at 35 mg/kg, po administered via gavage by UPLC-MS analysis; format: ADME, organism-based; conditions: in vivo, read-out: Vz/F
[8] = Apparent clearance during terminal phase in Sprague-Dawley rat at 35 mg/kg, po administered via gavage by UPLC-MS analysis; format: ADME, organism-based; conditions: in vivo, read-out: CLz/F (converted)
[9] = AUC (0 to infinity) in Sprague-Dawley rat at 35 mg/kg, po administered via gavage by UPLC-MS analysis; format: ADME, organism-based; set-up: dose 35 mg/kg, route oral, time infinity; conditions: in vivo
[10] = Tmax in Sprague-Dawley rat at 35 mg/kg, po administered via gavage by UPLC-MS analysis; format: ADME, organism-based; conditions: in vivo

| SMILES | EC50 [1] | also measured |
| --- | --- | --- |
| Fc1ccccc1-c1nc2ccn(Cc3nc4ccccc4n3-c3cccc(C(F)(F)F)c3)cc-2n1 | Not Active | – |
| Fc1ccccc1-c1nc2ccn(Cc3nc4ccccc4n3-c3ccccc3)cc-2n1 | Not Active | – |
| Cc1cc(C)n2nc(Cn3ccc4nc(-c5ccccc5F)nc-4c3)nc2n1 | Not Active | – |
| Fc1ccccc1-c1nc2ccn(Cc3cn(-c4ccccc4)nn3)cc-2n1 | – | Ratio EC50 [2]: 3 |
| Fc1ccccc1-c1nc2ccn(Cc3nc4ccccc4n3-c3cccc(Cl)c3)cc-2n1 | Not Active | – |
| Fc1ccccc1-c1nc2ccn(Cc3ccc(-c4ccc(C(F)(F)F)cc4C(F)(F)F)nn3)cc-2n1 [TEGOBUVIR] | – | EC50 [3]: 2.9 nM |
| Fc1ccccc1-c1nc2ccn(Cc3cn(Cc4nc5ccccc5n4-c4cccc(C(F)(F)F)c4)nn3)cc-2n1 | Not Active | – |
| COc1ccc(-n2cc(Cn3ccc4nc(-c5ccccc5F)nc-4c3)nn2)cc1 | – | Cmax [4]: 22300 ng/mL; half-life [5]: 2.88 h; MRT inf [6]: 2.18 h; Vd/F [7]: 2.12 L/kg; CL/F [8]: 8.33 mL/min/kg; AUC(0-inf) [9]: 72500 ng·h/mL; Tmax [10]: 1.33 h |
| Cc1cc(C)n2cc(Cn3ccc4nc(-c5ccccc5F)nc-4c3)nc2n1 | Not Active | – |

Further lines, with some results ahead:

| EC50 [1] | SMILES | also measured |
| --- | --- | --- |
| Not Active | Fc1ccccc1-c1nc2ccn(Cc3cn(Cc4nc5ccccc5n4-c4ccccc4)nn3)cc-2n1 | – |
| Not Active | Cc1ccc(-n2c(Cn3ccc4nc(-c5ccccc5F)nc-4c3)nc3ccccc32)cc1 | – |
| Not Active | Fc1ccccc1-c1nc2ccn(Cc3cn4cccnc4n3)cc-2n1 | – |
| Not Active | Fc1ccccc1-c1nc2ccn(Cc3cn(-c4cc(C(F)(F)F)cc(C(F)(F)F)c4)nn3)cc-2n1 | – |
